Reference: the supplement of paper PMC11451515

Test system: SEM cells
Experiment: cell viability relative to DMSO control; higher = less cytotoxic
Details: 48 h
In short: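 NOMO1 or SEM (500 cells/well) or P12-Ichikawa (1000 cells/well) leukemia cells were adapted for at least four passages in each medium. They were seeded in 1536-well plates (5 μl) and pin-dosed with library compounds in DMSO over an 11-point threefold series, 47 μM to 0.79 nM. CellTiter-Glo One luminescence was read after 48 h at 37°C. Viability is the per-plate percentage relative to DMSO wells, with cell-free wells as background.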

[1] = HPLM + 10% dialyzed FBS, 0.000781 µM
[2] = HPLM + 10% dialyzed FBS, 0.00234 µM
[3] = HPLM + 10% dialyzed FBS, 0.00702 µM
[4] = HPLM + 10% dialyzed FBS, 0.0211 µM
[5] = HPLM + 10% dialyzed FBS, 0.0632 µM
[6] = HPLM + 10% dialyzed FBS, 0.19 µM
[7] = HPLM + 10% dialyzed FBS, 0.569 µM
[8] = HPLM + 10% dialyzed FBS, 1.71 µM
[9] = HPLM + 10% dialyzed FBS, 5.12 µM
[10] = HPLM + 10% dialyzed FBS, 15.4 µM
[11] = HPLM + 10% dialyzed FBS, 46.1 µM
[12] = RPMI 5 mM glucose + 10% FBS, 0.000781 µM
[13] = RPMI 5 mM glucose + 10% FBS, 0.00234 µM
[14] = RPMI 5 mM glucose + 10% FBS, 0.00702 µM
[15] = RPMI 5 mM glucose + 10% FBS, 0.0211 µM
[16] = RPMI 5 mM glucose + 10% FBS, 0.0632 µM
[17] = RPMI 5 mM glucose + 10% FBS, 0.19 µM
[18] = RPMI 5 mM glucose + 10% FBS, 0.569 µM
[19] = RPMI 5 mM glucose + 10% FBS, 1.71 µM
[20] = RPMI 5 mM glucose + 10% FBS, 5.12 µM
[21] = RPMI 5 mM glucose + 10% FBS, 15.4 µM
[22] = RPMI 5 mM glucose + 10% FBS, 46.1 µM
[23] = RPMI 5 mM glucose + 10% dialyzed FBS, 0.000781 µM
[24] = RPMI 5 mM glucose + 10% dialyzed FBS, 0.00234 µM
[25] = RPMI 5 mM glucose + 10% dialyzed FBS, 0.00702 µM
[26] = RPMI 5 mM glucose + 10% dialyzed FBS, 0.0211 µM
[27] = RPMI 5 mM glucose + 10% dialyzed FBS, 0.0632 µM
[28] = RPMI 5 mM glucose + 10% dialyzed FBS, 0.19 µM
[29] = RPMI 5 mM glucose + 10% dialyzed FBS, 0.569 µM
[30] = RPMI 5 mM glucose + 10% dialyzed FBS, 1.71 µM
[31] = RPMI 5 mM glucose + 10% dialyzed FBS, 5.12 µM
[32] = RPMI 5 mM glucose + 10% dialyzed FBS, 15.4 µM
[33] = RPMI 5 mM glucose + 10% dialyzed FBS, 46.1 µM

Structure (SMILES)	cell viability [1] [%]	cell viability [2] [%]	cell viability [3] [%]	cell viability [4] [%]	cell viability [5] [%]	cell viability [6] [%]	cell viability [7] [%]	cell viability [8] [%]	cell viability [9] [%]	cell viability [10] [%]	cell viability [11] [%]	cell viability [12] [%]	cell viability [13] [%]	cell viability [14] [%]	cell viability [15] [%]	cell viability [16] [%]	cell viability [17] [%]	cell viability [18] [%]	cell viability [19] [%]	cell viability [20] [%]	cell viability [21] [%]	cell viability [22] [%]	cell viability [23] [%]	cell viability [24] [%]	cell viability [25] [%]	cell viability [26] [%]	cell viability [27] [%]	cell viability [28] [%]	cell viability [29] [%]	cell viability [30] [%]	cell viability [31] [%]	cell viability [32] [%]	cell viability [33] [%]
COc1cc([C@@H]2c3cc4c(cc3[C@@H](O[C@@H]3O[C@@H]5CO[C@@H](C)O[C@H]5[C@H](O)[C@H]3O)[C@H]3COC(=O)[C@H]23)OCO4)cc(OC)c1O	82.6	71.6	81.1	74.9	50.7	52.7	49.2	16.1	8.68	3.97	2.91	99.8	96.1	91.8	70.1	46.4	59.6	45.1	10.9	10.3	3.77	3.27	70.3	76	76.1	64.1	37	35.8	34.8	8.52	5.58	3.22	2.28
COc1cc2nc(N3CCN(C(=O)c4ccco4)CC3)nc(N)c2cc1OC	54.4	61.9	81.8	86.4	89.7	85.8	73	91.9	87	16.4	13.6	76.2	78.4	90.6	80.6	104	96.2	98.4	101	105	13.5	8.2	78.2	88.3	93.8	104	109	81.2	91	91.4	80.2	14	11.9
COCCNCCCn1c(C(=O)CF)c(-c2ccc(C)cc2)c2c(N)ncnc21	109	113	105	101	101	105	107	99.7	87	71.7	56.4												106	102	111	104	114	103	96.7	68.2	72.5	71.9	54.5
OC[C@H]1O[C@H](C[C@@H]1O)N2\C=C(\I)C(=O)NC2=O	86.1	99.2	97.3	93	99	113	117	88.2	95.3	74.7	69.6	97.1	110	104	107	102	113	101	110	101	77.8	66.5	90.9	92.5	92	99.9	98.4	109	84.3	64.3	60	49.2	39.4
COC(=O)Nc1nc2cc(Sc3ccccc3)ccc2[nH]1	107	108	119	115	124	130	100	102	22.6	24.1	24.2	119	121	131	129	113	114	93.2	91.6	15.3	18.6	18.2											
N[C@@H](Cc1ccc(N(CCCl)CCCl)cc1)C(=O)O	118	124	125	128	126	116	119	103	48.6	18.3	11.8												114	115	120	126	134	123	107	90.7	34.4	13.7	5.98
O=C(O)C(=O)Nc1cccc(-c2nnn[nH]2)c1	90.2	98.2	108	112	109	116	76.4	122	132	128	119	91.3	112	114	104	106	106	75.5	119	120	110	117	98.8	101	111	116	119	105	81.5	119	132	107	102
NC(=O)[C@@H](CCC(F)(F)F)N(Cc1ccc(-c2ncon2)cc1F)[S+](=O)([O-])c1ccc(Cl)cc1	96.6	106	102	106	103	98.8	81.4	90.9	91.5	72.2	4.51	114	108	104	114	114	92.9	83.8	81.9	84.3	30	2.87	84.4	98.6	98.2	98.7	86.3	88.6	95.8	79.5	70.9	52.3	2.93
